Assay results reported in patent US20250242064A1, “CXCR4-TARGETING COMPOUNDS, AND METHODS OF MAKING AND USING THE SAME” (PROVINCIAL HEALTH SERVICES AUTHORITY, priority 2022, published 2025).
Where a SMILES comes first, the peptide text is derived from it. Bridges are numbered along the chain shown (N, C = ends). [ ]: non-standard residue; d: D form. The star is where a group is joined. X5 = O=C(O)CN1CCN(CC(=O)O)CCN(CC(=O)N[C@@H](CS(=O)(=O)O)C(=O)N[C@@H](CCCCNC(=O)CCCc2ccc(Cl)cc2)C(=O)*)CCN(CC(=O)O)CC1; X1 = O=C(O)CN1CCN(CC(=O)O)CCN(CC(=O)N[C@@H](CS(=O)(=O)O)C(=O)N[C@@H](CCCCNC(=O)CCCc2ccc(I)cc2)C(=O)*)CCN(CC(=O)O)CC1; 2Nal = N[C@@H](Cc1ccc2ccccc2c1)C(=O)O; Lys(iPr) = CC(C)NCCCC[C@H](N)C(=O)O

Test: in vivo
Set-up: species or system mice
Details: male, NOD.Cg-Rag1tm1Mom Il2rgtm1Wjl/SzJ (NRG), mouse, iv, total radioactivity
Protocol: The Z138 Mantle cell lymphoma cell line was purchased from the American Type Culture Collection (ATCC©CRL-3001). The cell line was cultured in a 5% CO2 atmosphere at 37° C. in a humidified incubator with IMDM medium supplemented with 10% fetal bovine serum, 100 I.U./mL penicillin, and 100 μg/mL streptomycin.
[^68Ga]GaCl3 was eluted from an iThemba Labs generator with a total of 4 mL of 0.1 M HCl. The eluted [^68Ga]GaCl3 solution was added to 2 mL of concentrated HCl. This radioactive mixture was then added to a DGA resin column and washed with 3 mL of 5 M HCl. The column was then dried with air and the [^68Ga]GaCl3 (0.10-0.50 GBq) was eluted with 0.5 mL of water into a vial containing a solution of the unlabeled precursor (25 μg) in 0.7 mL HEPES buffer (2 M, pH 5.3). The reaction mixture was heated in a microwave oven (Danby; DMW7700WDB) for 1 min at power setting 2. The mixture was purified by semi-prep HPLC and quality control was performed via analytical HPLC with the co-injection of the unlabeled standard with a one-twelfth of the radiotracer. Radiochemical yields (decay-corrected) were >50% and radiochemical purities were >95%.
Animal experiments were performed in accordance with guidelines established by the Canadian Council on Animal Care, under a research protocol approved by the Animal Ethics Committee of the University of British Columbia. For all studies, male NOD.Cg-Rag1tm1Momll2rgtm1Wjl/SzJ (NRG) mice were used and cells injected in a 100 μL solution of 1:1 ratio of PBS/Matrigel. For preclinical imaging and biodistribution studies, 5×10^6 cells of Z138, cells were subcutaneously inoculated on the left or right flank and tumors were grown to a size of 200-300 mm^3. […]
Under isoflurane anesthesia (2-2.5% isoflurane in 2 L/min 02), mice were injected intravenously with [^68Ga]Ga-BL34L6 or [^68Ga]Ga-BL34L7. Mice were euthanized by CO2 inhalation after anesthesia with isoflurane. Tissues were harvested, washed in PBS, patted dry, weighed, and then assayed radioactivity on a gamma counter. Counted radioactivities were converted to percentage injected dose per gram of tissue (% ID/g) using a calibration curve.

[1] = Biodistribution: Small Intestine

SMILES | tissue uptake at 1 h (Biodistribution: Adrenals) | tissue uptake at 3 h (Biodistribution: Adrenals) | tissue uptake at 1 h (Biodistribution: Blood) | tissue uptake at 3 h (Biodistribution: Blood) | tissue uptake at 1 h (Biodistribution: Bone) | tissue uptake at 3 h (Biodistribution: Bone) | tissue uptake at 1 h (Biodistribution: Brain) | tissue uptake at 3 h (Biodistribution: Brain) | tissue uptake at 1 h (Biodistribution: Heart) | tissue uptake at 3 h (Biodistribution: Heart) | tissue uptake at 1 h (Biodistribution: Kidneys) | tissue uptake at 3 h (Biodistribution: Kidneys) | tissue uptake at 1 h (Biodistribution: Liver) | tissue uptake at 3 h (Biodistribution: Liver) | tissue uptake at 1 h (Biodistribution: Lungs) | tissue uptake at 3 h (Biodistribution: Lungs) | tissue uptake at 1 h (Biodistribution: Muscle) | tissue uptake at 3 h (Biodistribution: Muscle) | tissue uptake at 1 h (Biodistribution: Pancreas) | tissue uptake at 3 h (Biodistribution: Pancreas) | also measured
CC(C)NCCCC[C@H](NC(=O)[C@H]1CCC(=O)N[C@@H](CCCCNC(=O)[C@H](CCCCNC(=O)CCCc2ccc(I)cc2)NC(=O)[C@H](CS(=O)(=O)O)NC(=O)CN2CCN(CC(=O)O)CCN(CC(=O)O)CCN(CC(=O)O)CC2)C(=O)N[C@@H](Cc2ccc(O)cc2)C(=O)N[C@@H](CCCCNC(C)C)C(=O)N[C@H](CCCNC(=N)N)C(=O)N[C@@H](Cc2ccc3ccccc3c2)C(=O)N[C@H](C)C(=O)N1)C(N)=O [[^68Ga]Ga-BL34L11, metal not drawn] (K(X1)Y[Lys(iPr)][dR][2Nal][dA][dE][Lys(iPr)]-NH2; lactam N-7) | 4.99 %ID/g | 2.34 %ID/g | 18.7 %ID/g | 13.4 %ID/g | 1.53 %ID/g | 1.23 %ID/g | 0.29 %ID/g | 0.22 %ID/g | 4.53 %ID/g | 3.17 %ID/g | 5.39 %ID/g | 3.9 %ID/g | 3.7 %ID/g | 3.02 %ID/g | 8.36 %ID/g | 6.64 %ID/g | 1.39 %ID/g | 1.08 %ID/g | 1.67 %ID/g | 1.42 %ID/g | tissue uptake at 1 h [1]: 1.28 %ID/g; tissue uptake at 3 h [1]: 1.11 %ID/g; tissue uptake at 1 h (Biodistribution: Spleen): 2.35 %ID/g; tissue uptake at 3 h (Biodistribution: Spleen): 2 %ID/g; tissue uptake at 1 h (Biodistribution: Stomach): 0.97 %ID/g; tissue uptake at 3 h (Biodistribution: Stomach): 0.48 %ID/g; tissue uptake at 1 h (Biodistribution: Testes): 2.14 %ID/g; tissue uptake at 3 h (Biodistribution: Testes): 2.59 %ID/g; tissue uptake at 1 h (Biodistribution: Z138 Tumor): 6.55 %ID/g; tissue uptake at 3 h (Biodistribution: Z138 Tumor): 11.3 %ID/g; tissue to tissue ratio at 1 h (Ratio Tumor-to-Blood): 0.35; tissue to tissue ratio at 3 h (Ratio Tumor-to-Blood): 0.85; tissue to tissue ratio at 1 h (Ratio Tumor-to-Bone): 4.32; tissue to tissue ratio at 3 h (Ratio Tumor-to-Bone): 10.3; tissue to tissue ratio at 1 h (Ratio Tumor-to-Kidney): 1.27; tissue to tissue ratio at 3 h (Ratio Tumor-to-Kidney): 2.91; tissue to tissue ratio at 1 h (Ratio Tumor-to-Muscle): 4.85; tissue to tissue ratio at 3 h (Ratio Tumor-to-Muscle): 10.5; tissue to tissue ratio at 1 h (Ratio Tumor-to-Pancreas): 3.91; tissue to tissue ratio at 3 h (Ratio Tumor-to-Pancreas): 7.95
CC(C)NCCCC[C@H](NC(=O)[C@H]1CCC(=O)N[C@@H](CCCCNC(=O)[C@H](CCCCNC(=O)CCCc2ccc(Cl)cc2)NC(=O)[C@H](CS(=O)(=O)O)NC(=O)CN2CCN(CC(=O)O)CCN(CC(=O)O)CCN(CC(=O)O)CC2)C(=O)N[C@@H](Cc2ccc(O)cc2)C(=O)N[C@@H](CCCCNC(C)C)C(=O)N[C@H](CCCNC(=N)N)C(=O)N[C@@H](Cc2ccc3ccccc3c2)C(=O)N[C@H](C)C(=O)N1)C(N)=O [[^68Ga]Ga-BL34L16, metal not drawn] (K(X5)Y[Lys(iPr)][dR][2Nal][dA][dE][Lys(iPr)]-NH2; lactam N-7) | 1.63 %ID/g | 0.7 %ID/g | 7.27 %ID/g | 2.7 %ID/g | 2.65 %ID/g | 2.01 %ID/g | 0.11 %ID/g | 0.06 %ID/g | 1.66 %ID/g | 0.67 %ID/g | 3.56 %ID/g | 2.2 %ID/g | 2.61 %ID/g | 2.33 %ID/g | 5.9 %ID/g | 2.85 %ID/g | 0.61 %ID/g | 0.32 %ID/g | 0.76 %ID/g | 0.31 %ID/g | tissue uptake at 1 h [1]: 0.86 %ID/g; tissue uptake at 3 h [1]: 0.41 %ID/g; tissue uptake at 1 h (Biodistribution: Spleen): 2.48 %ID/g; tissue uptake at 3 h (Biodistribution: Spleen): 2.05 %ID/g; tissue uptake at 1 h (Biodistribution: Stomach): 0.26 %ID/g; tissue uptake at 3 h (Biodistribution: Stomach): 0.16 %ID/g; tissue uptake at 1 h (Biodistribution: Testes): 1.16 %ID/g; tissue uptake at 3 h (Biodistribution: Testes): 0.68 %ID/g; tissue uptake at 1 h (Biodistribution: Z138 Tumor): 10.1 %ID/g; tissue uptake at 3 h (Biodistribution: Z138 Tumor): 15.2 %ID/g; tissue to tissue ratio at 1 h (Ratio Tumor-to-Blood): 1.38; tissue to tissue ratio at 3 h (Ratio Tumor-to-Blood): 5.74; tissue to tissue ratio at 1 h (Ratio Tumor-to-Bone): 6.11; tissue to tissue ratio at 3 h (Ratio Tumor-to-Bone): 19.3; tissue to tissue ratio at 1 h (Ratio Tumor-to-Kidney): 2.83; tissue to tissue ratio at 3 h (Ratio Tumor-to-Kidney): 6.92; tissue to tissue ratio at 1 h (Ratio Tumor-to-Muscle): 16.8; tissue to tissue ratio at 3 h (Ratio Tumor-to-Muscle): 50.4; tissue to tissue ratio at 1 h (Ratio Tumor-to-Pancreas): 13.6; tissue to tissue ratio at 3 h (Ratio Tumor-to-Pancreas): 50.7
